Assay results: patent EP0429372A1, “2-Azolyl nicotinate derivatives as herbicides” (RHONE-POULENC AGROCHIMIE, priority 1989, dated 1991)
Read-outs that look alike come from different tables or passages of the source.

How the values were obtained:
Format in all cases: in vivo
Oryza sativa = assay: Example C: selectivity test in major crops, post-emergence application; settings: crop (Riz), 24 days, score 0-5, 0 or 1 = selective; also: ranges in brackets are in %
Source text: (§1) Dans des pots de 7 x 7 x 8 cm remplis de terre agricole légère, on sème un nombre de graines déterminé en fonction de l'espèce végétale et de la grosseur de la graine.
(§2) On recouvre ensuite les graines d'une couche de terre d'environ 3 mm d'épaisseur et on laisse germer la graine jusqu'à ce qu'elle donne naissance à une plantule au stade convenable. Le stade de traitement pour les graminées est le stade "deuxième feuille en formation". Le stade de traitement pour les dicotylédones, est le stade "cotylédons étalés, première feuille vraie en développement".
(§3) Les pots sont alors traités par pulvérisation de bouillie en quantité correspondant à une dose volumique d'application de 500 l/ha et contenant la matière active à la concentration désirée.
(§4) La bouillie a été préparée de la même manière qu'à l'exemple A.
(§5) Les pots traités sont ensuite placés dans des bacs destinés à recevoir l'eau d'arrosage, en subirrigation, et maintenus pendant 24 jours à température ambiante sous 70 % d'humidité relative.
(§6) Au bout de 24 jours, on mesure un pourcentage (D) de destruction du nombre de pieds dans le pot traité par rapport au nombre de plantes dans les pots non traités (témoin). On mesure, sur les plantes traitées restantes, le pourcentage de réduction de taille (RT) par rapport aux plantes témoin.
(§7) Le pourcentage de volume foliaire non détruit par le produit est donc donné par la formule : [formula]
(§8) Cette valeur A est transformée en notation de 0 à 5 selon l'échelle suivante :
(§9) Ainsi, un produit est jugé comme sélectif vis à vis de la culture lorsque la valeur A notée est de 0 ou 1.
(§10) Les résultats obtenus sont présentés dans l'exemple C pour des doses d'application comprises entre 0,5 et 4 kg de matière active par hectare selon les produits.

Zea mays = assay: as above; settings: crop (Maïs), 24 days, score 0-5, 0 or 1 = selective; also: ranges in brackets are in %
Source text: as §1, §2, §3, §4, §5, §6, §7, §8, §9, §10

Solanum nigrum [1] = assay: as above; settings: 576 h
Source text: as §1, §2, §3, §4, §5, §6, §7, §8, §9, §10

Triticum aestivum = assay: as above; settings: crop (Blé), 24 days, score 0-5, 0 or 1 = selective; also: ranges in brackets are in %
Source text: as §1, §2, §3, §4, §5, §6, §7, §8, §9, §10

Ipomea pupurea = assay: as above; settings: 576 h
Source text: as §1, §2, §3, §4, §5, §6, §7, §8, §9, §10

Xanthium pennsylvanicum = assay: as above; settings: 576 h
Source text: as §1, §2, §3, §4, §5, §6, §7, §8, §9, §10

Sesbania exaltata = assay: as above; settings: 576 h
Source text: as §1, §2, §3, §4, §5, §6, §7, §8, §9, §10

Sinapis alba [2] = assay: as above; settings: 500 g/ha, 576 h
Source text: as §1, §2, §3, §4, §5, §6, §7, §8, §9, §10

Solanum nigrum [3] = assay: Example B: post-emergence herbicidal application, pot test; settings: 576 h
Source text: as §1
as §2, with “formation ".” for “formation".”
as §3
(§11) La bouille a été préparée de la même manière qu'à l'exemple A.
as §5, §6
(§12) Le pourcentage du volume foliaire non détruit par le produit est donc donné par la formule : [formula]
as §8
(§13) Les résultats obtenus sont présentés après le tableau A pour des doses d'application de 4000 g/ha.

Echinochloa crusgalli = assay: as above; settings: 576 h
Source text: as §1
as §2, with “formation ".” for “formation".”
as §3, §11, §5, §6, §12, §8, §13

Lolium multiflorum = assay: as above; settings: 4000 g/ha, 576 h
Source text: as §1
as §2, with “formation ".” for “formation".”
as §3, §11, §5, §6, §12, §8, §13

Ipomea purpurea = assay: as above; settings: 576 h
Source text: as §1
as §2, with “formation ".” for “formation".”
as §3, §11, §5, §6, §12, §8, §13

Digitaria sanguinalis = assay: as above; settings: 576 h
Source text: as §1
as §2, with “formation ".” for “formation".”
as §3, §11, §5, §6, §12, §8, §13

Sinapis alba [4] = assay: as above; settings: 4000 g/ha, 576 h
Source text: as §1
as §2, with “formation ".” for “formation".”
as §3, §11, §5, §6, §12, §8, §13

mauvaises herbes [5] = assay: Procedure 1 b): weed control, pre-emergence application; settings: 4000 g/ha (procédé 1B), visual rating 17 to 20 days after spraying, vs control pots
Source text: (§14) Des quantités appropriées des composés d'essai ont été dissoutes dans de l'acétone pour obtenir des solutions équivalant à des taux d'application de 250, 1000 ou 4000 g de composé d'essai par hectare (g/ha).
Des graines de mauvaises herbes ont été semées à la surface de compost de mise en pot John Innes N°1 (7 parties par volume de terre végétale stérilisée, 3 parties en volume de gravier fin) dans des pots en matière plastique de 70 mm de côté et 75 mm de profondeur. Les quantités de graines par pot étaient les suivantes :
Les composés de la présente invention ont été appliqués aux graines non recouvertes de la manière décrite dans le paragraphe (a) ci-dessus et ces graines ont été recouvertes avec 25ml de sable liant après pulvérisation. Un seul pot de chaque espèce de mauvaise herbe a été attribué à chaque traitement, en association avec des témoins n'ayant pas subi de pulvérisation et des témoins ayant subi une pulvérisation avec de l'acétone seule. Après traitement, les pots ont été maintenus dans une serre et ont été arrosés par aspersion. L'évaluation visuelle de l'activité de destruction des mauvaises herbes a été effectuée 17 à 20 jours après pulvérisation. Les résultats ont été exprimés par le pourcentage de réduction de croissance ou de mortalité des mauvaises herbes, comparativement aux plantes présentes dans les pots témoins.

mauvaises herbes [6] = settings: post-emergence
Source text: as §14
Des espèces de mauvaises herbes ont été cultivées, puis transplantées au stade de jeunes plants de semis dans du compost de mise en pot John Innes N°1 dans des pots en matière plastique de 70 mm de côté et 75 mm de profondeur, sauf en ce qui concerne Avena fatua, qui a été semée directement dans le pot d'essai et n' a pas été transplantée. Puis les plantes ont été cultivées dans la serre jusqu'à ce qu'elles soient prêtes à subir une pulvérisation avec les composés d'essai. Le nombre de plantes par pot et la croissance de la plante au moment de la pulvérisation étaient les suivantes :
Les composés d'essai ont été appliquées aux plantes de la manière décrite dans le paragraphe (a) ci-dessus. Un seul pot de chaque espèce de mauvaises a été attribué à chaque traitement, en association avec des témoins n'ayant pas subi de pulvérisation et des témoins ayant subi une pulvérisation avec de l'acétone seule. Après pulvérisation, les pots ont été arrossés par aspersion, en commençant 24 heures après pulvérisation. L'évalutation visuelle de la lutte contre la croissance des mauvaises herbes a été effectuée 17 à 20 jours après pulvérisation. Les résultats ont été exprimés en pourcentage de réduction de croissance ou de mortalité des mauvaises herbes, comparativement aux plantes présentes dans les pots témoins.

Convolvulus arvensis = settings: post-emergence, 576 h
Source text: as §1, §2, §3, §4, §5, §6, §7, §8, §9, §10

Polygonum convolvulus = settings: 576 h
Source text: as §1, §2, §3, §4, §5, §6, §7, §8, §9, §10

Chrysanthemum segetum = settings: post-emergence, 576 h
Source text: as §1, §2, §3, §4, §5, §6, §7, §8, §9, §10

Viola tricolor = assay: Example C: selectivity test in major crops, post-emergence application; settings: 576 h
Source text: as §1, §2, §3, §4, §5, §6, §7, §8, §9, §10

Sinapis alba [7] = assay: Example B: post-emergence herbicidal application, pot test; settings: 1000 g/ha, 576 h

SMILES | ACTIVITE HERBICIDE DE POST LEVEE O R Y (Oryza sativa; dose 0,5 kg/ha) | ACTIVITE HERBICIDE DE POST LEVEE Z E A (Zea mays; dose 0,5 kg/ha) | ACTIVITE HERBICIDE DE POST LEVEE S O L (Solanum nigrum [1]; 500 g/ha) | ACTIVITE HERBICIDE DE POST LEVEE T R Z (Triticum aestivum; dose 0,5 kg/ha) | ACTIVITE HERBICIDE DE POST LEVEE I P O (Ipomea pupurea; 500 g/ha) | ACTIVITE HERBICIDE DE POST LEVEE X A N (Xanthium pennsylvanicum; 500 g/ha) | ACTIVITE HERBICIDE DE POST LEVEE S E S (Sesbania exaltata; 500 g/ha) | réduction de la croissance d'une ou plusieurs des espèces de mauvaises herbes (mauvaises herbes [5]) | réduction de la croissance d'une ou plusieurs des espèces de mauvaises herbes (mauvaises herbes [6]) | ACTIVITE DE POST-LEVEE SOL (Solanum nigrum [3]; 1000 g/ha) | ACTIVITE DE POST-LEVEE ECH (Echinochloa crusgalli; 1000 g/ha) | ACTIVITE DE POST-LEVEE IPO (Ipomea purpurea; 1000 g/ha) | ACTIVITE DE POST-LEVEE DIG (Digitaria sanguinalis; 1000 g/ha) | ACTIVITE DE POST-LEVEE SIN (Sinapis alba [7]) | further results
CN(C)S(=O)(=O)n1nc(-c2cccc(Cl)c2)nc1-c1ncccc1C(=O)O [compound 9] | 1 (70 à 90) | 2 (50 à 70) | 4 (10 à 30) | 0 (90 à 100) | 3 (30 à 50) | 3 (30 à 50) | 5 (O à 10) | – | – | – | – | – | – | – | ACTIVITE HERBICIDE DE POST LEVEE S I N (Sinapis alba [2]): 3 (30 à 50); ACTIVITE DE POST-LEVEE SOL (Solanum nigrum [3]; 4000 g/ha): 3 (30 à 50); ACTIVITE DE POST-LEVEE ECH (Echinochloa crusgalli; 4000 g/ha): 2 (50 à 70); ACTIVITE DE POST-LEVEE LOL (Lolium multiflorum): 0 (90 à 100); ACTIVITE DE POST-LEVEE IPO (Ipomea purpurea; 4000 g/ha): 3 (30 à 50); ACTIVITE DE POST-LEVEE DIG (Digitaria sanguinalis; 4000 g/ha): 2 (50 à 70); ACTIVITE DE POST-LEVEE SIN (Sinapis alba [4]): 4 (10 à 30)
CN(C)S(=O)(=O)n1c(-c2ncccc2C(=O)O)nc2cc(OC(F)(F)F)ccc21 [compound 92] | – | – | – | – | – | – | – | ≥ 90% | ≥ 90% | – | – | – | – | – | –
CN(C)S(=O)(=O)n1c(-c2ncccc2C(=O)OCC(F)(F)F)nc2ccccc21 [compound 100] | – | – | – | – | – | – | – | ≥ 90% | ≥ 90% | – | – | – | – | – | –
C=CCOC(=O)c1cccnc1-c1nc2ccccc2n1S(=O)(=O)N(C)C [compound 101] | – | – | – | – | – | – | – | ≥ 90% | ≥ 90% | – | – | – | – | – | –
CN(C)S(=O)(=O)n1c(-c2ncccc2C(=O)O)nc2ccccc21 [compound 119] | 0 (90 à 100) | 0 (90 à 100) | 4 (10 à 30) | 0 (90 à 100) | 3 (30 à 50) | 3 (30 à 50) | 5 (O à 10) | – | – | 5 (O à 10) | 0 (90 à 100) | 3 (30 à 50) | 0 (90 à 100) | 4 (10 à 30) | ACTIVITE HERBICIDE DE POST LEVEE C O N (Convolvulus arvensis; 500 g/ha): 2 (50 à 70); ACTIVITE HERBICIDE DE POST LEVEE P O L (Polygonum convolvulus; 500 g/ha): 5 (O à 10); ACTIVITE HERBICIDE DE POST LEVEE C H Y (Chrysanthemum segetum; 500 g/ha): 5 (O à 10); ACTIVITE HERBICIDE DE POST LEVEE V I O (Viola tricolor; 500 g/ha): 3 (30 à 50)
CN(C)S(=O)(=O)n1c(-c2ncccc2C(=O)O)nc2ccccc21 [compound 122] | – | – | – | – | – | – | – | – | – | 5 (O à 10) | 2 (50 à 70) | 4 (10 à 30) | 1 (70 à 90) | 5 (O à 10) | ACTIVITE HERBICIDE DE POST LEVEE C O N (Convolvulus arvensis; 1000 g/ha): 5 (O à 10); ACTIVITE HERBICIDE DE POST LEVEE P O L (Polygonum convolvulus; 1000 g/ha): 5 (O à 10); ACTIVITE HERBICIDE DE POST LEVEE C H Y (Chrysanthemum segetum; 1000 g/ha): 5 (O à 10); ACTIVITE HERBICIDE DE POST LEVEE O R Y (Oryza sativa; dose 1 kg/ha): 0 (90 à 100); ACTIVITE HERBICIDE DE POST LEVEE Z E A (Zea mays; dose 1 kg/ha): 0 (90 à 100); ACTIVITE HERBICIDE DE POST LEVEE S O L (Solanum nigrum [1]; 1000 g/ha): 5 (O à 10); ACTIVITE HERBICIDE DE POST LEVEE T R Z (Triticum aestivum; dose 1 kg/ha): 0 (90 à 100); ACTIVITE HERBICIDE DE POST LEVEE V I O (Viola tricolor; 1000 g/ha): 3 (30 à 50); ACTIVITE HERBICIDE DE POST LEVEE I P O (Ipomea pupurea; 1000 g/ha): 5 (O à 10); ACTIVITE HERBICIDE DE POST LEVEE X A N (Xanthium pennsylvanicum; 1000 g/ha): 5 (O à 10); ACTIVITE HERBICIDE DE POST LEVEE S E S (Sesbania exaltata; 1000 g/ha): 5 (O à 10)
